Experimental data: article PMC11239830, “Synthetic macrolides overcoming MLSBK-resistant pathogens” (Cell Discovery, 2024)
Read-outs that look alike come from different tables or passages of the source.

Tests used:
S. pneumoniae = experiment: MIC, broth microdilution; format: cell-based, Streptococcus pneumoniae
In short: (§1)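 Read-out is the lowest concentration without observed growth after 16–20 h at 37 °C, using the CLSI broth microdilution method.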

[1] = test system: 15B196 S. aureus ribosomes (A2058-methylated); experiment: PURE in vitro translation inhibition assay; format: biochemical, Staphylococcus aureus; conditions: mean ± SD
Procedure: (§2) To validate the in vitro activity of our compounds, we employed an in vitro reconstituted E. coli Protein synthesis Using a Recombinant Elements (PURE) translation system, substituting E. coli ribosomes with the purified S. aureus ribosomes.
(§3) 5 μL of PURE reaction mix that translates a gene encoding the Nanoluc luciferase was set up in the presence or absence of tested compounds. Protein synthesis was initiated by incubating reactions at 37 °C for 60 min and stopped by placing on ice for 5 min. Luciferase activity was quantified using the Nano-Glo luciferase assay system and read on a GloMax 20/20 luminometer (Promega, USA). For each compound, the in vitro translation inhibition assay was performed in three biological triplicates over a range of concentrations from 0.001 μM to 1000 μM. A compound-free control was used to normalize luminescence measurements. The calculated luminescence percentages were plotted against compound concentrations on a semilog scale using GraphPad Prism.

WT S. aureus ribosomes = experiment: PURE in vitro translation inhibition assay; format: biochemical, Staphylococcus aureus; conditions: mean ± SD
Procedure: as §2, §3

[2] = CCK-8 assay for cytotoxicity; format: cell-based, human; conditions: human, HEK293T cells, HEK293T cell viability
Procedure: HepG2 cells (6 × 10^3) and HEK293T cells (4 × 10^3) were seeded into 96-well plates in 90 μL of DMEM medium containing 10% FBS per well. […] After overnight incubation, the test compound stock solution was diluted with DMEM medium containing 10% FBS to every target concentration, and 10 μL of each was added to each well. Three parallel experiments were set up for each compound. After incubation for 48 h, 10 μL of cell counting kit-8 (CCK-8) reagent was added to each well in sequence according to the manufacturer’s instructions. […] This experiment was independently repeated three times. The data were processed by GraphPad Prism.

S. pyogenes = experiment: MIC, broth microdilution; format: cell-based, Streptococcus pyogenes
In short: as §1

[3] = test system: E. coli JW5503 ΔtolC pDualrep2; experiment: pDualrep2 dual-reporter assay; format: cell-based; conditions: red = Katushka2S, translation inhibitors; green = RFP, DNA damage
S. aureus = experiment: MIC, broth microdilution; format: cell-based, Staphylococcus aureus
In short: as §1

M. catarrhalis = experiment: MIC, broth microdilution; format: cell-based, Moraxella catarrhalis; conditions: Moraxella catarrhalis; M. catarrhalis 13L332, Ery-S; read-out: MIC
Procedure: MICs were determined by the microdilution method according to the Clinical and Laboratory Standards Institute guidelines. Briefly, the stock solution of compounds and the reference antibiotics were diluted 2-fold in sterile 96-well plates with cation-adjusted Mueller-Hinton broth, and mixed with CAMHB-containing bacteria to give a final inoculum of 5 × 10^5 CFU/mL for broth microdilution experiments. […] Finally, the 96-well plates were incubated at 37 °C for 16–20 h to observe and record the results. The lowest concentration at which no bacterial growth could be observed visually was identified as the MICs of the compounds. The assay for MICs was replicated at least three times.

[4] = Staphylococcus aureus, MRSA, MRSA (13)
[5] = Staphylococcus aureus, i-MLSB S. aureus (10)

CC[C@H]1OC(=O)[C@H](C)[C@@H](OC(=O)NCCCOCCC#Cc2ccc3c(=O)c(C(=O)O)cn(C)c3c2)[C@H](C)[C@@H](O[C@@H]2O[C@H](C)C[C@H](N(C)C)[C@H]2O)[C@](C)(OC)C[C@@H](C)C(=O)[C@H](C)[C@H]2NC(=O)O[C@@]21C [MCX-190]
> 100 µM: CC50 at 48 h [2]
2 µg/mL: MIC (S. pneumoniae; Streptococcus pneumoniae, S. pneumoniae 05O173, c-ermB, mef, read-out: MIC) | MIC (S. pyogenes; S. pyogenes 21W186, Clinical, c-ermTR)
red color inhibition zone: dual-reporter inhibition zone colour [3]
32 µg/mL: MIC (S. aureus; S. aureus 21F206, Clinical, MSSA, c-ermB)
0.5 µg/mL: MIC (S. pneumoniae; S. pneumoniae 21D016, Clinical, c-ermB, mef) | MIC (S. pneumoniae; S. pneumoniae 21M277, Clinical, c-ermB) | MIC (S. pneumoniae; S. pneumoniae 21W257, Clinical, c-ermB, mef) | MIC (S. pyogenes; S. pyogenes 12-207, Clinical, mef) | MIC (S. pyogenes; S. pyogenes 21D200, Clinical, c-ermB) | MIC (S. pyogenes; S. pyogenes 21M063, Clinical, c-ermB) | MIC (S. aureus; S. aureus 21D115, Clinical, MSSA, i-ermC) | MIC (S. aureus; S. aureus 21P404, Clinical, MSSA, i-ermC) | MIC (S. aureus; S. aureus 21Y223, Clinical, MRSA, i-ermC) | MIC50 (S. aureus; Staphylococcus aureus, MSSA, MSSA (10)) | MIC (S. aureus; Staphylococcus aureus, S. aureus PU32, i-ermA, read-out: MIC) | MIC90 (S. aureus; [5])
0.03 µg/mL: MIC (S. pneumoniae; Streptococcus pneumoniae, ATCC49619, S. pneumoniae ATCC49619, Ery-S, read-out: MIC) | MIC (S. pyogenes; S. pyogenes 01-968, Clinical, i-ermB)
0.25 µg/mL: MIC (S. pneumoniae; S. pneumoniae 21D020, Clinical, c-ermB, mef) | MIC (S. pneumoniae; S. pneumoniae 21Q352, Clinical, i-MLSB) | MIC (S. pneumoniae; S. pneumoniae 21Q353, Clinical, i-MLSB) | MIC (S. aureus; S. aureus 21B212, Clinical, MSSA, i-ermC) | MIC (S. aureus; S. aureus 21C173, Clinical, MSSA, i-ermC) | MIC (S. aureus; S. aureus 21C187, Clinical, MRSA, i-ermA) | MIC (S. aureus; S. aureus 21F207, Clinical, MRSA, i-ermC) | MIC (S. aureus; S. aureus 21K194, Clinical, MSSA, i-ermC) | MIC (S. aureus; S. aureus 21X388, Clinical, i-ermA (MRSA in Table S9, MSSA in Fig. 2a)) | MIC (S. aureus; S. aureus ATCC29213) | MIC (S. aureus; S. aureus PU32, Clinical, MRSA, i-ermA) | MIC50 (S. aureus; [5]) | MIC (M. catarrhalis)
0.12 µg/mL: MIC (S. pneumoniae; S. pneumoniae 21C315, Clinical, c-ermB) | MIC (S. pneumoniae; Streptococcus pneumoniae, S. pneumoniae 07P390, c-ermB, read-out: MIC) | MIC (S. pyogenes; Streptococcus pyogenes, S. pyogenes 12-206, c-ermTR, read-out: MIC)
0.016 µg/mL: MIC (S. pneumoniae; S. pneumoniae 21X435, Clinical) | MIC (S. pneumoniae; S. pneumoniae ATCC49619) | MIC (S. pneumoniae; S. pneumoniae ATCC49619, Ery-S, listed as 95g)
4 µg/mL: MIC (S. aureus; S. aureus 21Q253, Clinical, MRSA, c-ermB) | MIC (S. aureus; S. aureus 21T141, Clinical, MRSA, c-ermB) | MIC50 (S. aureus; [4])
0.46 ± 0.23 µM: IC50 [1]
1 µg/mL: MIC (S. pyogenes; S. pyogenes 21C303, Clinical, c-ermB) | MIC (S. pyogenes; S. pyogenes 21D184, Clinical, c-ermB) | MIC (S. pyogenes; S. pyogenes 21D199, Clinical, c-ermB) | MIC (S. pyogenes; S. pyogenes 21K003, Clinical, mef) | MIC (S. aureus; S. aureus 21C174, Clinical, MSSA, c-ermB) | MIC50 (S. aureus; Staphylococcus aureus, All S. aureus (24))
0.06 µg/mL: MIC (S. pneumoniae; S. pneumoniae 07P390, c-ermB, listed as 95g) | MIC (S. pneumoniae; Streptococcus pneumoniae, S. pneumoniae PU09, mef, read-out: MIC)
0.38 ± 0.1 µM: IC50 (WT S. aureus ribosomes)
64 µg/mL: MIC (S. aureus; S. aureus 21D112, Clinical, MSSA, c-ermB) | MIC (S. aureus; S. aureus 21P191, Clinical, MSSA, c-ermC) | MIC (S. aureus; S. aureus 21R216, Clinical, MSSA, c-ermC) | MIC90 (S. aureus; Staphylococcus aureus, c-MLSB S. aureus (13)) | MIC90 (S. aureus; Staphylococcus aureus, MSSA (10))
16 µg/mL: MIC (S. aureus; S. aureus 21P407, Clinical, MRSA, c-ermB)
8 µg/mL: MIC (S. aureus; S. aureus 15B196, Clinical, MRSA, c-ermB) | MIC (S. aureus; S. aureus 21B200, Clinical, MRSA, c-ermB) | MIC (S. aureus; S. aureus 21B207, Clinical, MRSA, c-ermB) | MIC (S. aureus; S. aureus 21F198, Clinical, MRSA, c-ermB) | MIC (S. aureus; S. aureus 21N354, Clinical, MRSA, c-ermB) | MIC90 (S. aureus; [4]) | MIC (S. aureus; Staphylococcus aureus, S. aureus 15B196, c-ermB, read-out: MIC) | MIC50 (S. aureus; Staphylococcus aureus, c-MLSB (constitutive) S. aureus (13))
